Key:
SREBP1 = experiment: Immunofluorescence of SREBP1 nuclear accumulation; format: cell-based, human; conditions: Huh7 cells, peptide 15 μM, IGF1 100 ng/mL 8 h
Experimental: Figure 1 The Insig1/2 loop 1 peptide binds to S90‐phosphorylated PCK1 and blocks PCK1‐mediated SREBP activation and tumor cell proliferation. Immunoblotting analyses were performed using the indicated antibodies; representative results from three independent experiments are shown (IP, immunoprecipitation; WB, western blot). a) Huh7 cells expressing various Insig1 (top) or Insig2 (bottom) truncation mutants were treated with or without IGF1 (100 ng mL^−1) for 1 h. b,c) Biolayer interferometry assays (Sartorius Octet) were employed to measure the binding affinity of Insig1/2 loop 1 peptide to GST‐PCK1 or GST‐PCK1 pS90 proteins. […] Statistical significance was determined by one‐way analysis of variance (ANOVA). g) Following pretreatment with Insig1/2 loop 1 peptide (15 µM) and IGF1 stimulation (100 ng mL^−1, 8 h), Huh7 cells were subjected to immunofluorescence analysis (scale bar: 10 µm). h) Quantitative PCR analysis of SREBP1 target gene GPAM in Huh7 cells pretreated with Insig1/2 loop 1 peptide (15 µM) and stimulated with IGF1 (100 ng mL^−1) for 10 h. […] Statistical significance was determined by one‐way analysis of variance (ANOVA). i) Quantitative PCR analysis of SREBP1 target gene FASN in Huh7 cells pretreated with Insig1/2 loop 1 peptide (15 µM) and stimulated with IGF1 (100 ng mL^−1) for 10 h. […]

[1] = tested on: Insig1 S207/Insig2 S151 phosphorylation; experiment: Immunoblot of Insig1 S207/Insig2 S151 phosphorylation, Hep3B; format: cell-based, human; conditions: Hep3B cells, peptide 7.5 or 15 μM 1 h before IGF1 100 ng/mL
Experimental: Cellular proteins were extracted using ice‐cold lysis buffer [50 mM Tris‐HCl (pH 7.5), 150 mM NaCl, 0.1% SDS, 1% Triton X‐100, 1 mM DTT, 0.5 mM EDTA] supplemented with protease inhibitor cocktail (Roche) and phosphatase inhibitors (Bimake). Following lysis, cell extracts were centrifuged at 13400 × g for 15 min at 4 °C to remove cellular debris. The clarified supernatants were then incubated with primary antibodies overnight at 4 °C with gentle rotation. For Flag‐tagged protein immunoprecipitation, Flag M2 magnetic beads (Sigma) were added to the lysate‐antibody mixture and incubated for an additional 4 h at 4 °C. The immunocomplexes were washed three times with lysis buffer under stringent conditions (5 min per wash with rotation). Finally, the precipitated proteins were eluted and analyzed by immunoblotting as previously described.^[ [35] ^]
e) Hep3B cells were pretreated with low (7.5 μM) or high (15 μM) concentrations of Insig1/2 loop 1 peptide for 1 h before IGF1 (100 ng ml⁻¹) stimulation.

Question: With “RKKRRQRRRLYPCIDSHLGEPHKFKRE [Insig1/2 loop 1 peptide]” as the sequence, how does the “nuclear accumulation of SREBP1” value (SREBP1) read?
Answer: The value was “markedly inhibited”.

Question: And the “Insig1 S207/Insig2 S151 phosphorylation” value [1]?
Answer: The value was “markedly inhibited”.
